According to patent publication US20090203610A1, “METHODS OF TREATING OBESITY OR DIABETES USING NT-4/5” (RINAT NEUROSCIENCE CORPORATION, priority 2004, published 2009):

Experiments:
Conditions in all cases: NT-4/5 20 mg/kg s.c., Rosiglitazone 3 mg/kg p.o.
[1] = tested on: db/db mice; experiment: Body weight of db/db mice (Example 1); type: in vivo
Method: (§1) Throughout the experiment period (T1-T26), daily individual body weights as well as food intake per cage were measured.

[2] = tested on: db/db mice; experiment: Total blood cholesterol levels in db/db mice (Example 1); type: in vivo
Method: (§2) A difference was considered significant for p<0.05.
The blood triglyceride level and the total blood cholesterol level were determined with a triglyceride assay kit (ref 445850, Beckman Coutler, France) and a total cholesterol kit (ref 467825, Beckman Coutler, France), respectively, using a Synchron CX4 analyzer.

[3] = tested on: db/db mice; experiment: Serum transaminase (AST, ALT) activity in db/db mice (Example 1)
Method: Test animals: 24 female 10-12 weeks old db/db mice (C57BL/Ks J Rj-db/db, Janvier, France), weighing in the target range of 40-50 g, were used in this study. These mice were housed in a temperature (19.5-24.5° C.) and relative humidity (45-65%) controlled room with a 12-hour light/dark cycle, with ad libitum access to filtered tap-water and irradiated pelleted laboratory chow (SAFE, France) throughout the study. Upon receipt at animal facilities, they were housed 4 per cage covered with filtered caps and at least a 5-day acclimation period was observed.
The mice were divided into three groups of 8 mice each (groups 1-3). Each group was treated with vehicle (PBS) subcutaneously (s.c.), 3 mg/kg Rosiglitazone orally (p.o.), or 20 mg/kg NT-4/5 subcutaneously (s.c.). From day 1 to day 5 (T1-T5) and then from day 8 to day 12 (T8-T12), the mice in groups 2 and 3 were dosed once daily for 5 consecutive days, with a volume of 10 ml/kg.
Collection of samples for analysis: One day before beginning the treatment (T0), non fasted db/db mice were weighed and blood samples were collected through the retro-orbital plexus (about 300 μL/mouse) under isoflurane anesthesia. Similarly, at day 5 (T5), day 12 (T12), day 19 (T19) and day 26 (T26), two hours after the last administration, blood samples were collected through the retro-orbital plexus under isoflurane anesthesia in non fasted mice.
Analysis of blood samples in db/db mice: Pre- and post dose serum levels of glucose, HbA1c, cholesterol and triglycerides, insulin, and non esterified fatty acids (NEFA), as well as aspirate amino-transferase (AST) and alanine amino-transferase activities (ALT) activities, were determined at different time points, as described further herein. At each time point and for each parameter, a mean % of the effect was calculated according to the following formula: ((T final−T initial)/T initial)*100. Statistical analysis was consistent in a one-way analysis of variance followed by multiple comparisons versus the vehicle group (Dunnett's test) on final values. In case the equal variance test fails, a Kruskall-Wallis one-way analysis of variance on ranks was conducted. A difference was considered significant for p<0.05.
Aspartate amino-transferase (AST) and alanine amino-transferase (ALT) activities were determined with an AST kit (ref. 442665, Beckman Coulter, France), an ALT kit (ref. 442620, Beckman Coulter, France), using a Synchron CX4 analyzer.

[4] = tested on: db/db mice; experiment: Blood insulin level by ELISA in db/db mice (Example 1); type: in vivo
Method: as §2
The blood insulin level was determined by ELISA using an Insulin ELIT Plus kit (ref. INSRAT01-8N, Eurobio, France).

[5] = tested on: db/db mice; experiment: Blood glucose levels in db/db mice (Example 1); type: in vivo
Method: Administration of NT-4/5 and reference substances: Rosiglitazone (3 mg/kg, Sequoia Research Products Ltd., UK), a thiazolidinedione compound for the therapy of type 2 diabetes, was used in the present experiment as a reference. Phosphate buffer saline was used as vehicle in this experiment. NT-4/5 was obtained from Genentech.
as §2

[6] = tested on: db/db mice; experiment: Serum nonesterified fatty acids (NEFA) in db/db mice (Example 1); type: in vivo
Method: as §2
Serum nonesterified fatty acids (NEFA) levels were determined by calorimetric method using a non esterified fatty acids kit (ref. FA 15, Randox, France).

[7] = tested on: db/db mice; experiment: Food intake of db/db mice (Example 1); type: in vivo
Method: as §1

CN(CCOc1ccc(CC2SC(=O)NC2=O)cc1)c1ccccn1 (centres unmarked) [Rosiglitazone, reference compound]
body weight, mean ([1]; Day 0): 42.3 g
body weight expressed as % of baseline, mean ([1]; Day 1): 98.3 % of baseline
body weight, mean ([1]; Day 1): 41.6 g
body weight expressed as % of baseline, mean ([1]; Day 2): 99.5 % of baseline
body weight, mean ([1]; Day 2): 42.1 g
body weight expressed as % of baseline, mean ([1]; Day 3): 100.0 % of baseline
body weight, mean ([1]; Day 3): 42.3 g
body weight expressed as % of baseline, mean ([1]; Day 4): 100.8 % of baseline
body weight, mean ([1]; Day 4): 42.7 g
body weight expressed as % of baseline, mean ([1]; Day 5): 102.2 % of baseline
body weight, mean ([1]; Day 5): 43.3 g
body weight expressed as % of baseline, mean ([1]; Day 6): 100.6 % of baseline
body weight, mean ([1]; Day 6): 42.6 g
body weight expressed as % of baseline, mean ([1]; Day 7): 101.1 % of baseline
body weight, mean ([1]; Day 7): 42.8 g
body weight expressed as % of baseline, mean ([1]; Day 8): 102.3 % of baseline
body weight, mean ([1]; Day 8): 43.3 g
body weight expressed as % of baseline, mean ([1]; Day 9): 103.8 % of baseline
body weight, mean ([1]; Day 9): 43.9 g
body weight expressed as % of baseline, mean ([1]; Day 10): 104.2 % of baseline
body weight, mean ([1]; Day 10): 44.1 g
body weight expressed as % of baseline, mean ([1]; Day 11): 104.9 % of baseline
body weight, mean ([1]; Day 11): 44.4 g
body weight expressed as % of baseline, mean ([1]; Day 12): 106.3 % of baseline
body weight, mean ([1]; Day 12): 45.0 g
body weight expressed as % of baseline, mean ([1]; Day 13): 104.9 % of baseline
body weight, mean ([1]; Day 13): 44.4 g
body weight expressed as % of baseline, mean ([1]; Day 14): 105.1 % of baseline
body weight, mean ([1]; Day 14): 44.5 g
body weight expressed as % of baseline, mean ([1]; Day 15): 104.9 % of baseline
body weight, mean ([1]; Day 15): 44.4 g
body weight expressed as % of baseline, mean ([1]; Day 18): 105.5 % of baseline
body weight, mean ([1]; Day 18): 44.7 g
body weight expressed as % of baseline, mean ([1]; Day 19): 106.0 % of baseline
body weight, mean ([1]; Day 19): 44.9 g
body weight expressed as % of baseline, mean ([1]; Day 20): 104.3 % of baseline
body weight, mean ([1]; Day 20): 44.2 g
body weight expressed as % of baseline, mean ([1]; Day 21): 105.3 % of baseline
body weight, mean ([1]; Day 21): 44.6 g
body weight expressed as % of baseline, mean ([1]; Day 22): 105.1 % of baseline
body weight, mean ([1]; Day 22): 44.5 g
body weight expressed as % of baseline, mean ([1]; Day 25): 106.7 % of baseline
body weight, mean ([1]; Day 25): 45.2 g
body weight expressed as % of baseline, mean ([1]; Day 26): 106.9 % of baseline
body weight, mean ([1]; Day 26): 45.3 g
cholesterol levels T0 ([2]; day 0, before treatment): 3.27 mM
cholesterol levels T5 ([2]; day 5): 3.48 mM
cholesterol % effect T5-T0 ([2]; day 5 vs day 0): 6.5%
cholesterol levels T12 ([2]; day 12): 3.25 mM
cholesterol % effect T12-T0 ([2]; day 12 vs day 0): −0.3%
cholesterol levels T19 ([2]; day 19): 3.01 mM
cholesterol % effect T19-T0 ([2]; day 19 vs day 0): −7.5%
cholesterol levels T26 ([2]; day 26): 3.05 mM
cholesterol % effect T26-T0 ([2]; day 26 vs day 0): −6.7%
ALT T0 ([3]; day 0, before treatment): 157.5 IU/L
ALT/AST ratio T0 ([3]; day 0, before treatment): 1.00
AST T0 ([3]; day 0, before treatment): 185.8 IU/L
ALT T5 ([3]; day 5): 172.3 IU/L
ALT/AST ratio T5 ([3]; day 5): 1.03
AST T5 ([3]; day 5): 174.0 IU/L
ALT % effect T5-T0 ([3]; day 5 vs day 0): 12.7%
ALT/AST ratio % effect T5-T0 ([3]; day 5 vs day 0): 16.4%
AST % effect T5-T0 ([3]; day 5 vs day 0): 8.2%
ALT T12 ([3]; day 12): 222.0 IU/L
ALT/AST ratio T12 ([3]; day 12): 1.13
AST T12 ([3]; day 12): 200.5 IU/L
ALT % effect T12-T0 ([3]; day 12 vs day 0): 43.6%
ALT/AST ratio % effect T12-T0 ([3]; day 12 vs day 0): 30.4%
AST % effect T12-T0 ([3]; day 12 vs day 0): 19.9%
ALT T19 ([3]; day 19): 179.0 IU/L
ALT/AST ratio T19 ([3]; day 19): 1.31
AST T19 ([3]; day 19): 148.5 IU/L
ALT % effect T19-T0 ([3]; day 19 vs day 0): 16.6%
ALT/AST ratio % effect T19-T0 ([3]; day 19 vs day 0): 52.2%
AST % effect T19-T0 ([3]; day 19 vs day 0): −6.9%
ALT T26 ([3]; day 26): 144.3 IU/L
ALT/AST ratio T26 ([3]; day 26): 1.05
AST T26 ([3]; day 26): 143.0 IU/L
ALT % effect T26-T0 ([3]; day 26 vs day 0): −10.1%
ALT/AST ratio % effect T26-T0 ([3]; day 26 vs day 0): 17.1%
AST % effect T26-T0 ([3]; day 26 vs day 0): −13.8%
insulin levels T0 ([4]; day 0, before treatment): 6.93 nM
insulin levels T5 ([4]; day 5): 3.94 nM
insulin % effect T5-T0 ([4]; day 5 vs day 0): −37.0%
insulin levels T12 ([4]; day 12): 2.85 nM
insulin % effect T12-T0 ([4]; day 12 vs day 0): −51.8%
insulin levels T19 ([4]; day 19): 7.30 nM
insulin % effect T19-T0 ([4]; day 19 vs day 0): 14.4%
insulin levels T26 ([4]; day 26): 6.33 nM
insulin % effect T26-T0 ([4]; day 26 vs day 0): −5.7%
blood glucose levels T0 ([5]; day 0, before treatment): 37.56 mM
blood glucose % effect T5-T0 ([5]; day 5 vs day 0): −40.5%
blood glucose levels T12 ([5]; day 12): 22.24 mM
blood glucose % effect T12-T0 ([5]; day 12 vs day 0): −40.9%
blood glucose levels T19 ([5]; day 19 (dosing stopped day 12)): 33.74 mM
blood glucose % effect T19-T0 ([5]; day 19 vs day 0): −9.0%
blood glucose levels T26 ([5]; day 26 (dosing stopped day 12)): 43.60 mM
blood glucose % effect T26-T0 ([5]; day 26 vs day 0): 17.5%
NEFA levels T0 ([6]; day 0, before treatment): 0.782 mM
NEFA levels T5 ([6]; day 5): 0.507 mM
NEFA % effect T5-T0 ([6]; day 5 vs day 0): −32.8%
NEFA levels T12 ([6]; day 12): 0.444 mM
NEFA % effect T12-T0 ([6]; day 12 vs day 0): −39.9%
NEFA levels T19 ([6]; day 19): 0.739 mM
NEFA % effect T19-T0 ([6]; day 19 vs day 0): −2.2%
NEFA levels T26 ([6]; day 26): 0.345 mM
NEFA % effect T26-T0 ([6]; day 26 vs day 0): −53.7%
food intake, mean ([7]; Day 1): 100.8 g/kg/day
food intake, mean ([7]; Day 2): 124.9 g/kg/day
food intake, mean ([7]; Day 3): 137.8 g/kg/day
food intake, mean ([7]; Day 5): 143.1 g/kg/day
food intake, mean ([7]; Day 6): 63.4 g/kg/day
food intake, mean ([7]; Day 7): 96.6 g/kg/day
food intake, mean ([7]; Day 8): 129.1 g/kg/day
food intake, mean ([7]; Day 9): 139.3 g/kg/day
food intake, mean ([7]; Day 10): 140.2 g/kg/day
food intake, mean ([7]; Day 11): 128.1 g/kg/day
food intake, mean ([7]; Day 12): 114.4 g/kg/day
food intake, mean ([7]; Day 13): 98.3 g/kg/day
food intake, mean ([7]; Day 14): 129.1 g/kg/day
food intake, mean ([7]; Day 15): 100.3 g/kg/day
food intake, mean ([7]; Day 18): 108.2 g/kg/day
food intake, mean ([7]; Day 19): 102.0 g/kg/day
food intake, mean ([7]; Day 20): 90.5 g/kg/day
food intake, mean ([7]; Day 21): 129.9 g/kg/day
food intake, mean ([7]; Day 22): 122.3 g/kg/day
food intake, mean ([7]; Day 25): 125.4 g/kg/day
food intake, mean ([7]; Day 26): 109.2 g/kg/day
